Here are results for 15 compounds from US20110301087A1, “CRF1 RECEPTOR COMPOUNDS” (priority 2008, published 2011).

This assay has as its target T1, CRF1 (Homo sapiens, UniProt P34998).
T1 construct: endogenously expresses functional CRF1; endogenous in cells; host or cells: Y-79 human retinoblastoma cells
T1 sequence (P34998 24-415): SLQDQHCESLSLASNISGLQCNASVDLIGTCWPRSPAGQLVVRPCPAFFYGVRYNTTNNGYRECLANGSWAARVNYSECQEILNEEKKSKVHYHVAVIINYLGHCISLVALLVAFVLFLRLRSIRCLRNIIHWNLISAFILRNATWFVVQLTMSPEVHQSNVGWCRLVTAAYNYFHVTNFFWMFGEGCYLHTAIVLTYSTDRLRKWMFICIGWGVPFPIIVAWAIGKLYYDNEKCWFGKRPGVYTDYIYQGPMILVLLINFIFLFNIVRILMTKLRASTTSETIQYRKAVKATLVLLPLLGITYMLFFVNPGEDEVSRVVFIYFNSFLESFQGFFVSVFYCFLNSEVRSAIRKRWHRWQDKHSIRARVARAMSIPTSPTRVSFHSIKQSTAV
The assay can be described thus: CRF1 assessment of cAMP (HTRF cAMP assay) in Y-79 cells, antagonist mode. The format is cell-based. The following applies: Y79 cells; for IC50: CRF1 cAMP screening, against agonist; for inhibition at 0.3 µM: 300 nM pepducin against agonist dose response, read-out: % Inhibition (± SD). From the text: HTRF (homogeneous time resolved fluorescence) is a technology developed by Cisbio Bioassays based on TR-FRET (time-resolved fluorescence resonance energy transfer). Cisbio Bioassays has developed a wide selection of HTRF-based assays compatible with whole cells, thereby enabling functional assays run under more physiological conditions. cAMP kits are based on a competitive immunoassay using cryptate-labeled anti-cAMP antibody and d2-labeled cAMP. This assay allows the measurement of increase in intracellular cAMP upon Gs-coupled receptor activation as well as decrease in forskolin stimulated increase in cAMP upon Gi-coupled receptor activation. Cells expressing CRF1 endogenously or via transfection can be used to assess compound pharmacology using cAMP assays as a means to measure the activity of adenylyl cyclase resulting from CRF1 activation or inhibition.
An example of the use of the cAMP assay can be assessing CRF activation of CRF1 in Y-79, a human retinoblastoma cell line which endogenously expresses functional CRF1. Y-79 cells were seeded into 96-well half area black plates at 30K/well in Hank's balanced salt solution with 50 mM HEPES, 0.1% BSA, 200 uM IBMX. Compounds to be tested for agonist activity were added to cells, incubated for 30 minutes at 37 degrees C. and assayed for cAMP concentration. To test for antagonist activity, compounds to be tested were added to cells, followed by the addition of agonist at an experimentally determined optimal concentration, generally the EC80. Plates were incubated for 30 minutes at 37 degrees C. and assayed for cAMP. To determine concentration of cAMP in each well, d2-labeled cAMP in Conjugate/Lysis buffer was added to wells. This addition lysed the cells and input a known concentration of labeled cAMP. This was followed by the addition of anti-cAMP antibody conjugated to cryptate. FRET occurs when cryptate-labeled antibody binds to d2-labeled cAMP. Therefore, the specific signal is inversely proportional to the concentration of cAMP in the sample. Conversion of signal to concentration of cAMP in the well was accomplished by comparing the FRET signal of sample to a standard curve generated using known concentrations of cAMP.
Background: In TR-FRET formats the signal depends on donor and acceptor labels being close together.

Where a SMILES comes first, the peptide text is derived from it. [ ]: non-standard residue; d: D form. The star is where a group is joined. Palmitoyl = CCCCCCCCCCCCCCCC(=O)*; Nle = CCCC[C@H](N)C(=O)O Bounds are passed on as bounds.

What is called IC50 is the point on the concentration scale where inhibition reaches its midpoint. A higher IC50 goes with lower potency. The inhibition is the change of the read-out against control, counted positive when it falls.

For the compound `CCCCCCCCCCCCCCCC(=O)N[C@H](C(=O)N[C@@H](CC(=O)O)C(=O)N[C@@H](CCCNC(=N)N)C(=O)N[C@@H](CC(C)C)C(=O)N[C@@H](CCCNC(=N)N)C(=O)N[C@@H](C)C(=O)N[C@@H](Cc1c[nH]c2ccccc12)C(=O)N[C@@H](CCSC)C(=O)N[C@@H](Cc1ccccc1)C(=O)N[C@H](C(N)=O)[C@@H](C)CC)[C@@H](C)O` [Compound 49] (Palmitoyl-TDRLRAWMFI-NH2), the IC50 was over 10000 nM and the inhibition at 0.3 µM was 42%.
The corresponding values for `CCCCCCCCCCCCCCCC(=O)N[C@@H](Cc1ccc(O)cc1)C(=O)N[C@@H](CO)C(=O)N[C@H](C(=O)N[C@@H](CC(=O)O)C(=O)N[C@@H](CCCNC(=N)N)C(=O)N[C@@H](CC(C)C)C(=O)N[C@@H](CCCNC(=N)N)C(=O)N[C@@H](CCCCN)C(=O)N[C@@H](Cc1c[nH]c2ccccc12)C(=O)N[C@@H](CCSC)C(=O)N[C@@H](Cc1ccccc1)C(=O)N[C@H](C(N)=O)[C@@H](C)CC)[C@@H](C)O` [Compound 34] (Palmitoyl-YSTDRLRKWMFI-NH2) are 501 to 1000 nM and 21 ± 5%.
In the case of `CCCCCCCCCCCCCCCC(=O)NCC(=O)N[C@@H](CO)C(=O)N[C@H](C(=O)N[C@@H](CC(=O)O)C(=O)N[C@@H](CCCNC(=N)N)C(=O)N[C@@H](CC(C)C)C(=O)N[C@@H](CCCNC(=N)N)C(=O)N[C@@H](CCCCN)C(=O)N[C@@H](C)C(=O)N[C@@H](CCSC)C(=O)N[C@@H](Cc1ccccc1)C(=O)N[C@H](C(N)=O)[C@@H](C)CC)[C@@H](C)O` [Compound 40] (Palmitoyl-GSTDRLRKAMFI-NH2), the IC50 lay within 501 to 1000 nM and the inhibition at 0.3 µM is 61 ± 20%.
Take `CCCCCCCCCCCCCCCC(=O)N[C@@H](CCCNC(=N)N)C(=O)N[C@H](C(=O)N[C@@H](CC(C)C)C(=O)N[C@@H](CCSC)C(=O)N[C@H](C(=O)N[C@@H](CCCCN)C(=O)N[C@@H](CC(C)C)C(=O)N[C@@H](CCCNC(=N)N)C(=O)N[C@@H](C)C(=O)N[C@@H](CO)C(=O)N[C@H](C(=O)N[C@H](C(=O)N[C@@H](CO)C(N)=O)[C@@H](C)O)[C@@H](C)O)[C@@H](C)O)[C@@H](C)CC` [Compound 58, Pal-RILMTKLRASTTS-amide] (Palmitoyl-RILMTKLRASTTS-NH2): the IC50 fell in the range of 501 to 1000 nM and the inhibition at 0.3 µM was determined as 35%.
In the same order, the values of `CCCCCCCCCCCCCCCC(=O)N[C@@H](CCCNC(=N)N)C(=O)N[C@@H](CC(C)C)C(=O)N[C@@H](CCCNC(=N)N)C(=O)N[C@@H](CCCCN)C(=O)N[C@@H](Cc1c[nH]c2ccccc12)C(=O)N[C@@H](CCSC)C(=O)N[C@@H](C)C(=O)N[C@H](C(N)=O)[C@@H](C)CC` [Compound 41] (Palmitoyl-RLRKWMAI-NH2) are 501 to 1000 nM and 40%.
Consider `CCCCCCCCCCCCCCCC(=O)N[C@@H](C)C(=O)N[C@@H](CO)C(=O)N[C@H](C(=O)N[C@H](C(=O)N[C@@H](CO)C(=O)N[C@@H](CCC(=O)O)C(=O)N[C@H](C(=O)N[C@H](C(=O)N[C@@H](CCC(N)=O)C(=O)N[C@@H](Cc1ccc(O)cc1)C(=O)N[C@@H](CCCNC(=N)N)C(=O)N[C@@H](CCCCN)C(=O)N[C@@H](C)C(=O)N[C@H](C(=O)N[C@@H](CCCCN)C(=O)N[C@@H](CO)C(N)=O)C(C)C)[C@@H](C)CC)[C@@H](C)O)[C@@H](C)O)[C@@H](C)O` [Compound 62] (Palmitoyl-ASTTSETIQYRKAVKS-NH2), for which the IC50 lay in the range of 1000 to 5000 nM and the inhibition at 0.3 µM is 50%.
The corresponding values for `CCCCCCCCCCCCCCCC(=O)NCC(=O)N[C@@H](CO)C(=O)N[C@H](C(=O)N[C@@H](CC(=O)O)C(=O)N[C@@H](CCCNC(=N)N)C(=O)N[C@@H](CC(C)C)C(=O)N[C@@H](CCCNC(=N)N)C(=O)N[C@@H](CCCCN)C(=O)N[C@@H](Cc1c[nH]c2ccccc12)C(=O)N[C@@H](CCSC)C(=O)N[C@@H](C)C(=O)N[C@H](C(N)=O)[C@@H](C)CC)[C@@H](C)O` [Compound 38] (Palmitoyl-GSTDRLRKWMAI-NH2) are 1000 to 5000 nM and 60 ± 8%.
In the same order, the values of `CCCCCCCCCCCCCCCC(=O)N[C@@H](CC(=O)O)C(=O)N[C@@H](CCCNC(=N)N)C(=O)N[C@@H](CC(C)C)C(=O)N[C@@H](CCCNC(=N)N)C(=O)N[C@@H](CCCCN)C(=O)N[C@@H](Cc1c[nH]c2ccccc12)C(=O)N[C@@H](CCSC)C(=O)N[C@@H](Cc1ccccc1)C(=O)N[C@H](C(N)=O)[C@@H](C)CC` [Compound 31] (Palmitoyl-DRLRKWMFI-NH2) are 1000 to 5000 nM and 30 ± 17%.
With `CCCCCCCCCCCCCCCC(=O)N[C@H](C(=O)N[C@@H](CC(=O)O)C(=O)N[C@@H](CCCNC(=N)N)C(=O)N[C@@H](CC(C)C)C(=O)N[C@@H](CCCNC(=N)N)C(=O)N[C@@H](CCCCN)C(=O)N[C@@H](Cc1c[nH]c2ccccc12)C(=O)N[C@@H](CCCC)C(=O)N[C@@H](Cc1ccccc1)C(=O)N[C@H](C(N)=O)[C@@H](C)CC)[C@@H](C)O` [Compound 54] (Palmitoyl-TDRLRKW[Nle]FI-NH2), the inhibition at 0.3 µM came to 55 ± 7%.
Same read-out and setting: in the case of `CCCCCCCCCCCCCCCC(=O)NCC(=O)N[C@@H](CO)C(=O)N[C@H](C(=O)N[C@@H](CC(=O)O)C(=O)N[C@@H](CCCNC(=N)N)C(=O)N[C@@H](CC(C)C)C(=O)N[C@@H](CCCNC(=N)N)C(=O)N[C@@H](CCCCN)C(=O)N[C@@H](C)C(=O)N[C@@H](CCCC)C(=O)N[C@@H](Cc1ccccc1)C(=O)N[C@H](C(N)=O)[C@@H](C)CC)[C@@H](C)O` [Compound 53] (Palmitoyl-GSTDRLRKA[Nle]FI-NH2) it was 50 ± 14%.
Consider `CCCCCCCCCCCCCCCC(=O)NCC(=O)N[C@@H](CO)C(=O)N[C@H](C(=O)N[C@@H](CCCNC(=N)N)C(=O)N[C@@H](C)C(=O)N[C@@H](CCCNC(=N)N)C(=O)N[C@H](C(=O)N[C@@H](C)C(=O)N[C@@H](CCCNC(=N)N)C(=O)N[C@@H](C)C(=O)N[C@@H](CCSC)C(N)=O)C(C)C)[C@@H](C)CC` [Compound 64] (Palmitoyl-GSIRARVARAM-NH2), for which the IC50 fell in the range of 1000 to 5000 nM and the inhibition at 0.3 µM is 55 ± 13%.
In the same order, the values of `CCCCCCCCCCCCCCCC(=O)N[C@H](C(=O)N[C@@H](CC(=O)O)C(=O)N[C@@H](CCCNC(=N)N)C(=O)N[C@@H](CC(C)C)C(=O)N[C@@H](CCCNC(=N)N)C(=O)N[C@@H](CCCCN)C(=O)N[C@@H](Cc1c[nH]c2ccccc12)C(=O)N[C@@H](CCSC)C(=O)N[C@@H](C)C(=O)N[C@H](C(N)=O)[C@@H](C)CC)[C@@H](C)O` [Compound 43] (Palmitoyl-TDRLRKWMAI-NH2) are over 10000 nM and 48%.
In the same order, the values of `CCCCCCCCCCCCCCCC(=O)NCC(=O)N[C@@H](CO)C(=O)NCC(=O)N[C@@H](CCCNC(=N)N)C(=O)N[C@@H](CC(C)C)C(=O)N[C@@H](CCCNC(=N)N)C(=O)N[C@@H](CCCCN)C(=O)N[C@@H](Cc1c[nH]c2ccccc12)C(=O)N[C@@H](CCSC)C(=O)N[C@@H](Cc1ccccc1)C(=O)N[C@H](C(N)=O)[C@@H](C)CC` [Compound 26] (Palmitoyl-GSGRLRKWMFI-NH2) are 1000 to 5000 nM and 63%.
In the same order, the values of `CCCCCCCCCCCCCCCC(=O)NCC(=O)N[C@@H](CO)C(=O)N[C@H](C(=O)N[C@@H](CC(=O)O)C(=O)N[C@@H](CCCNC(=N)N)C(=O)N[C@@H](CC(C)C)C(=O)N[C@@H](CCCNC(=N)N)C(=O)N[C@@H](CCCCN)C(=O)N[C@@H](Cc1c[nH]c2ccccc12)C(=O)N[C@@H](CCSC)C(=O)N[C@@H](Cc1ccccc1)C(=O)N[C@H](C(N)=O)[C@@H](C)CC)[C@@H](C)O` [Compound 29, Pal-GSTDRLRKWMFI-amide] (Palmitoyl-GSTDRLRKWMFI-NH2) are 501 to 1000 nM and 53 ± 14%.
As for `CCCCCCCCCCCCCCCC(=O)N[C@H](C(=O)N[C@@H](CC(=O)O)C(=O)N[C@@H](CCCNC(=N)N)C(=O)N[C@@H](CC(C)C)C(=O)N[C@@H](CCCNC(=N)N)C(=O)N[C@@H](CCCCN)C(=O)N[C@@H](Cc1c[nH]c2ccccc12)C(=O)N[C@@H](CCSC)C(=O)N[C@@H](Cc1ccccc1)C(=O)N[C@@H](C)C(N)=O)[C@@H](C)O` [Compound 52] (Palmitoyl-TDRLRKWMFA-NH2), the half-inhibitory concentration (IC50) was over 10000 nM and the inhibition at 0.3 µM was determined as 70%.
